The values that follow come from patent US10226452B2, “Benzoxazolone derivatives as acid ceramidase inhibitors, and their use as medicaments” (FONDAZIONE ISTITUTO ITALIANO DI TECNOLOGIA, priority 2014, dated 2019).

Test [1] relates to SW403 cells. As to the kind of experiment: cells. As to conditions: Homo sapiens, SW-403, read-out: EC50, SW403 cell viability.
Description: Combinatory index calculation of cell viability data analyzed with CompuSyn Software. The resulting combination index (CI) offers quantitative definition for additive effect (CI=1), synergism (CI<1), and antagonism (CI>1) in drug combinations. Results are expressed as mean±s.e.m. (n=8-16) of three independent experiments.
Finally, the CellTiter-Glo® Luminescent Cell Viability Assay can be used to determine the number of viable cells in culture based on quantitation of the ATP present, which signals the presence of metabolically active cells. Briefly, a volume of CellTiter-Glo® Reagent equal to the volume of cell culture medium present in each well is added to 96-well plates after drug treatment. Contents are mixed for 2 minutes on an orbital shaker to induce cell lysis and plate was incubated at room temperature for 10 minutes to stabilize signal before reading luminescence.
The compounds were added to the cultures once every 24 hours over a period of 72 hours and the effects of the combined treatments were evaluated using CompuSyn Software.
Test [2] addresses human (hAC) acid ceramidase (Homo sapiens (Human), UniProt Q13510). As to the kind of experiment: fluorescent-based in vitro assay on human acid ceramidase. Type of test: biochemical. Conditions: hAC-enriched lysosomal lysate from HEK293 cells; fluorogenic probe 5 μM; pH 4.5. From the text: To evaluate the potency of the compounds towards acid ceramidase, a fluorescence-based in vitro assay previously described in literature (Bedia C et al., ChemBioChem, 2007, 8, 642-648) was implemented and optimized. This assay is based on a “fluorogenic probe” containing a coumarin group and a sphingoid base moiety (see figure below), which is not fluorescent in itself, but upon enzymatic cleavage by acid ceramidase followed by a chemical transformation liberates the fluorescent molecule umbelliferone (7-hydroxychromen-2-one). By quantifying the generation of umbelliferone using a fluorescence plate-reader, the level of enzymatic activity can be measured, whereby IC50 values of compounds that inhibit this activity can be generated.
Lysosomal lysate, enriched with acid ceramidase, was prepared from a cell line stably expressing human acid ceramidase. In the assay, the fluorogenic probe (or substrate) serves as a ceramide-analogue, which is recognized and hydrolyzed at the amide bond by acid ceramidase from the enriched lysate to yield the fatty acid and coumarinic aminodiol. By treating the solution with sodium periodate (NaIO4), the coumarinic aminodiol is subsequently oxidized into an aldehyde intermediate, which undergoes a β-elimination reaction to release the strongly fluorescent umbelliferone.
A lysosomal human acid ceramidase protein preparation was obtained from HEK293 cells stably expressing acid ceramidase suspended in 20 mM Tris HCl (pH 7.5) with 0.32 M sucrose. The cell solution was sonicated and centrifuged at 800×g for 15 min at 4° C. Supernatants were then centrifuged at 12,000×g for 30 min at 4° C. Pellets were re-suspended in PBS pH 7.4 and subjected to two freeze-thaw cycles at −80° C. The suspension was finally centrifuged at 105,000×g for 1 hour at 4° C. and protein concentration was measured in the supernatant with bicinchinonic-acid based protein assay. This human acid ceramidase-enriched preparation allowed us to further optimize the enzymatic assay and to use smaller amounts of lysate (2 μg/well) and substrate (5 μM).
The assay was performed in Optiplate 96-wells black plates, with each reaction well containing a mixture of 25 mM sodium acetate buffer pH 4.5 and a fixed amount of protein (2 μg) in a volume of 85 μL. After 30 mins of pre-incubation with test compounds (diluted 20× from DMSO stock solutions at different concentrations), the fluorogenic probe was added (diluted 20× from EtOH stock solution, final concentration 5 μM). After incubation for 3 hours at 37° C., the reactions were stopped with 50 μL of methanol and 100 μL of a 2.5 mg/mL NalO4 fresh solution in 100 mM Glycine/NaOH pH 10.6. The plate was incubated at 37° C. for 2 hours in the dark and fluorescence intensities were measured at excitation/emission wavelengths of 360/446 nm. Negative control samples consisted of the same incubation mixture in the absence of protein extracts. The IC50 values or percent of inhibition, at the indicated concentration, of selected compounds described in the invention are reported in Table 2.

Chain of human (hAC) acid ceramidase (Q13510 22-142): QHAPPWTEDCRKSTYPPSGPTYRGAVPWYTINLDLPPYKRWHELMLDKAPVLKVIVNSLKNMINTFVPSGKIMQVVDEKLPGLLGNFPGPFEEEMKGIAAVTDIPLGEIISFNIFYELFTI
Chain of human (hAC) acid ceramidase (Q13510 143-395): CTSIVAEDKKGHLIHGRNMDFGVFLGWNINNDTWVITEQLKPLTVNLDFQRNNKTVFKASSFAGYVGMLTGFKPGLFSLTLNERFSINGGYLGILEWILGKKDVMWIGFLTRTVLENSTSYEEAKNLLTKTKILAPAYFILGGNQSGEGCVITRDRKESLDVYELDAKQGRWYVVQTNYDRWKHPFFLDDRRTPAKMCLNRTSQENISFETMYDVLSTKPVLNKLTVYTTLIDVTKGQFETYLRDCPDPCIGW

For the compound `O=c1[nH]cc(F)c(=O)[nH]1` [Example 5-FU, 5-fluorouracil], the concentration for a half-maximal effect (EC50) in test [1] stood at 736 nM.

In the case of `O=C(NCCCCc1ccc2ccccc2c1)n1c(=O)oc2ccccc21` [Example 52, N-[4-(2-Naphthyl)butyl]-2-oxo-1,3-benzoxazole-3-carboxamide], the IC50 in test [2] turned out to be 57 nM.

Regarding `O=C(NCCCCc1ccccc1)n1c(=O)oc2cccc(F)c21` [Example 56, 4-Fluoro-2-oxo-N-(4-phenylbutyl)-1,3-benzoxazole-3-carboxamide], the IC50 in test [2] was 1 ± 1 nM.

`O=C(NCCCCCc1ccccc1)n1c(=O)oc2ccccc21` [Example 57, 2-Oxo-N-(5-phenylpentyl)-1,3-benzoxazole-3-carboxamide] returned an IC50 in test [2] of 54 ± 12 nM.

Turning to `O=C(NCCCCCCc1ccccc1)n1c(=O)oc2ccccc21` [Example 58, 2-Oxo-N-(6-phenylhexyl)-1,3-benzoxazole-3-carboxamide], the IC50 in test [2] was 99 ± 58 nM.

In test [2], `CCCCCCCNC(=O)n1c(=O)oc2ccccc21` [Example 59, N-Heptyl-2-oxo-1,3-benzoxazole-3-carboxamide] yielded an IC50 of 50 ± 7 nM.

The term EC50 denotes the concentration needed to bring the measured effect to its halfway point. For orientation: IC50 means the concentration at which inhibition is half-maximal. Lower therefore signals higher potency.
